This is an account of results in BindingDB's records for doi:10.1021/jm00060a006 (Paris Diderot University, 1993).

Test [1] in a line: Inhibition of PAF-induced rabbit platelet aggregation.
Test [2] can be described thus: Inhibition of [3H]PAF binding to rabbit platelet membrane.

Molecules are shown by their SMILES.

By IC50 is commonly meant the concentration needed to halve the response being measured. Read a high IC50 as weaker potency in that assay. One may read the EC50 as the concentration needed to bring the measured effect to its halfway point. A high value points to weaker potency.

`COc1cc(C(=O)N2CCN(C(=O)c3cc(OC)c(OC)c(OC)c3)CC2)cc(OC)c1OC` returned an IC50 in test [1] of 1780 nM.

Turning to `C[C@@H]1C(=O)O[C@H]2[C@H](O)[C@@]34[C@H]5C[C@@H](C(C)(C)C)[C@]36[C@@H](OC(=O)[C@@H]6O)O[C@@]4(C(=O)O5)[C@@]12O`, the response in test [2] was half-maximal at 180 nM (EC50). Further, in test [1], half-maximal inhibition (IC50) was put at 740 nM.

In test [1], `COc1cc(N2CCN(c3cc(OC)c(OC)c(OC)c3)CC2)cc(OC)c1OC` [1,4-Bis-(3,4,5-trimethoxy-phenyl)-piperazine] showed a half-maximal inhibitory concentration (IC50) of 12500 nM.

In test [2], `COc1cc(C(=O)N2CCN(C(=O)c3cc(OC)c(OC)c(OC)c3)C(COC(=O)C(C)(C)C)C2)cc(OC)c1OC` (stereo unspecified) [2,2-Dimethyl-propionic acid 1,4-bis-(3,4,5-trimethoxy-benzoyl)-piperazin-2-ylmethyl ester] came in with a concentration for a half-maximal effect (EC50) of 300 nM. The same compound came in with an IC50 in test [1] of 100 nM.

`COc1cc(C(=O)N2CCN(C(=O)c3cc(OC)c(OC)c(OC)c3)C(COC(=O)c3ccccc3Cl)C2)cc(OC)c1OC` (stereo unspecified) [2-Chloro-benzoic acid 1,4-bis-(3,4,5-trimethoxy-benzoyl)-piperazin-2-ylmethyl ester]: the EC50 in test [2] is 450 nM. This compound also came in with an IC50 in test [1] of 170 nM.

The compound `CCC(CC)C(=O)OCC1CN(Cc2cc(OC)c(OC)c(OC)c2)CCN1Cc1cc(OC)c(OC)c(OC)c1` (stereo unspecified) [2-Ethyl-butyric acid 1,4-bis-(3,4,5-trimethoxy-benzyl)-piperazin-2-ylmethyl ester] registered an IC50 in test [1] of 2700 nM.

For the compound `COc1cc(C(=O)N2CCN(C(=O)c3cc(OC)c(OC)c(OC)c3)C(COC(=O)CC(C)(C)C)C2)cc(OC)c1OC` (stereo unspecified) [3,3-Dimethyl-butyric acid 1,4-bis-(3,4,5-trimethoxy-benzoyl)-piperazin-2-ylmethyl ester], 120 nM corresponded to half-maximal inhibition in test [1] (IC50). Against the preceding compound, the IC50 is about 22-fold lower.

For the compound `CCC(C)(C)NC(=O)OCC1CN(C(=O)c2cc(OC)c(OC)c(OC)c2)CCN1C(=O)c1cc(OC)c(OC)c(OC)c1` (stereo unspecified) [(1,1-Dimethyl-propyl)-carbamic acid 1,4-bis-(3,4,5-trimethoxy-benzoyl)-piperazin-2-ylmethyl ester], in test [1], half-maximal inhibition (IC50) required 320 nM.

On to `COc1cc(C(=O)N2CCN(C(=O)c3cc(OC)c(OC)c(OC)c3)C(COC(=O)NC(C)C(C)(C)C)C2)cc(OC)c1OC` (stereo unspecified) [(1,2,2-Trimethyl-propyl)-carbamic acid 1,4-bis-(3,4,5-trimethoxy-benzoyl)-piperazin-2-ylmethyl ester], for which the IC50 in test [1] was determined as 170 nM.

In test [2], `COc1cc(C(=O)N2CCN(C(=O)c3cc(OC)c(OC)c(OC)c3)C(COC(=O)NC(C)C(C)C)C2)cc(OC)c1OC` (stereo unspecified) [(1,2-Dimethyl-propyl)-carbamic acid 1,4-bis-(3,4,5-trimethoxy-benzoyl)-piperazin-2-ylmethyl ester] came in with a concentration for a half-maximal effect (EC50) of 70 nM. For the same compound, in test [1], the IC50 was determined as 80 nM.

Take `COc1cc(C(=O)N2CCN(C(=O)c3cc(OC)c(OC)c(OC)c3)C(COC(=O)NC(C)CC(C)C)C2)cc(OC)c1OC` (stereo unspecified) [(1,3-Dimethyl-butyl)-carbamic acid 1,4-bis-(3,4,5-trimethoxy-benzoyl)-piperazin-2-ylmethyl ester]: the EC50 in test [2] worked out at 180 nM. In test [1], this compound showed an IC50 of 280 nM.

In turn, `CCCN(CCC)C(=O)OCC1CN(C(=O)c2cc(OC)c(OC)c(OC)c2)CCN1C(=O)c1cc(OC)c(OC)c(OC)c1` (stereo unspecified) [(1,4-bis(3,4,5-trimethoxybenzoyl)piperazin-2-yl)methyl dipropylcarbamate] displayed an EC50 in test [2] of 680 nM. The compound also registered an IC50 in test [1] of 380 nM.

`CCC(CC)NC(=O)OCC1CN(C(=O)c2cc(OC)c(OC)c(OC)c2)CCN1C(=O)c1cc(OC)c(OC)c(OC)c1` (stereo unspecified) [(1-Ethyl-propyl)-carbamic acid 1,4-bis-(3,4,5-trimethoxy-benzoyl)-piperazin-2-ylmethyl ester]: the IC50 in test [1] is 130 nM.

Turning to `CCCC(C)NC(=O)OCC1CN(C(=O)c2cc(OC)c(OC)c(OC)c2)CCN1C(=O)c1cc(OC)c(OC)c(OC)c1` (stereo unspecified) [(1-Methyl-butyl)-carbamic acid 1,4-bis-(3,4,5-trimethoxy-benzoyl)-piperazin-2-ylmethyl ester], the midpoint of inhibition in test [1], the IC50, lay at 100 nM.

`CCCCC(CC)CNC(=O)OCC1CN(C(=O)c2cc(OC)c(OC)c(OC)c2)CCN1C(=O)c1cc(OC)c(OC)c(OC)c1` (stereo unspecified) [(2-Ethyl-hexyl)-carbamic acid 1,4-bis-(3,4,5-trimethoxy-benzoyl)-piperazin-2-ylmethyl ester]: the IC50 in test [1] worked out at 3900 nM. This IC50 lies about 39-fold higher than the previous one.

Consider `CCC(C)CNC(=O)OCC1CN(C(=O)c2cc(OC)c(OC)c(OC)c2)CCN1C(=O)c1cc(OC)c(OC)c(OC)c1` (stereo unspecified) [(2-Methyl-butyl)-carbamic acid 1,4-bis-(3,4,5-trimethoxy-benzoyl)-piperazin-2-ylmethyl ester], for which the midpoint of inhibition in test [1], the IC50, lay at 470 nM.

As to `COc1cc(NC(=O)OCC2CN(C(=O)c3cc(OC)c(OC)c(OC)c3)CCN2C(=O)c2cc(OC)c(OC)c(OC)c2)cc(OC)c1OC` (stereo unspecified) [(3,4,5-Trimethoxy-phenyl)-carbamic acid 1,4-bis-(3,4,5-trimethoxy-benzoyl)-piperazin-2-ylmethyl ester], the IC50 in test [1] worked out at 13800 nM.

Take `COc1cc(C(=O)N2CCN(C(=O)c3cc(OC)c(OC)c(OC)c3)C(COC(=O)NCCC(C)C)C2)cc(OC)c1OC` (stereo unspecified) [(3-Methyl-butyl)-carbamic acid 1,4-bis-(3,4,5-trimethoxy-benzoyl)-piperazin-2-ylmethyl ester]: the IC50 in test [1] stood at 140 nM.

In turn, `COc1cc(C(=O)N2CCN(C(=O)c3cc(OC)c(OC)c(OC)c3)C(COC(=O)COc3ccc(Cl)cc3)C2)cc(OC)c1OC` (stereo unspecified) [(4-Chloro-phenoxy)-acetic acid 1,4-bis-(3,4,5-trimethoxy-benzoyl)-piperazin-2-ylmethyl ester] showed an IC50 in test [1] of 5000 nM.

In test [1], `COc1cc(C(=O)N2CCN(C(=O)c3cc(OC)c(OC)c(OC)c3)C(COC(=O)COc3ccc(F)cc3)C2)cc(OC)c1OC` (stereo unspecified) [(4-Fluoro-phenoxy)-acetic acid 1,4-bis-(3,4,5-trimethoxy-benzoyl)-piperazin-2-ylmethyl ester] showed an IC50 of 10300 nM.

`COc1cc(C(=O)N2CCN(C(=O)c3cc(OC)c(OC)c(OC)c3)C(COC(C)=O)C2)cc(OC)c1OC` (stereo unspecified) [Acetic acid 1,4-bis-(3,4,5-trimethoxy-benzoyl)-piperazin-2-ylmethyl ester] displayed an EC50 in test [2] of 400 nM. Also, the concentration for half-maximal inhibition (IC50) in test [1] is 430 nM.

The compound `CCCCNC(=O)OCC1CN(C(=O)c2cc(OC)c(OC)c(OC)c2)CCN1C(=O)c1cc(OC)c(OC)c(OC)c1` (stereo unspecified) [Butyl-carbamic acid 1,4-bis-(3,4,5-trimethoxy-benzoyl)-piperazin-2-ylmethyl ester] showed an EC50 in test [2] of 700 nM. Also, the half-maximal inhibitory concentration (IC50) in test [1] was determined as 240 nM.

Compound `CCCC(=O)OCC1CN(C(=O)c2cc(OC)c(OC)c(OC)c2)CCN1C(=O)c1cc(OC)c(OC)c(OC)c1` (stereo unspecified) [Butyric acid 1,4-bis-(3,4,5-trimethoxy-benzoyl)-piperazin-2-ylmethyl ester] registered an IC50 in test [1] of 420 nM.

Turning to `COc1cc(C(=O)N2CCN(C(=O)c3cc(OC)c(OC)c(OC)c3)C(COC(=O)C3CCCCC3)C2)cc(OC)c1OC` (stereo unspecified) [Cyclohexanecarboxylic acid 1,4-bis-(3,4,5-trimethoxy-benzoyl)-piperazin-2-ylmethyl ester], inhibition in test [1] was half-maximal at 290 nM (IC50). This IC50 and that of the compound before are within 1.5-fold of each other.

With `CCCCCCCCCC(=O)OCC1CN(C(=O)c2cc(OC)c(OC)c(OC)c2)CCN1C(=O)c1cc(OC)c(OC)c(OC)c1` (stereo unspecified) [Decanoic acid 1,4-bis-(3,4,5-trimethoxy-benzoyl)-piperazin-2-ylmethyl ester], the IC50 in test [1] is 2820 nM.

Compound `CCCCN(CCCC)C(=O)OCC1CN(C(=O)c2cc(OC)c(OC)c(OC)c2)CCN1C(=O)c1cc(OC)c(OC)c(OC)c1` (stereo unspecified) [Dibutyl-carbamic acid 1,4-bis-(3,4,5-trimethoxy-benzoyl)-piperazin-2-ylmethyl ester] yielded an IC50 in test [1] of 1250 nM. This IC50 is about 2.3-fold lower than that of the compound before.

On to `CCN(CC)C(=O)OCC1CN(C(=O)c2cc(OC)c(OC)c(OC)c2)CCN1C(=O)c1cc(OC)c(OC)c(OC)c1` (stereo unspecified) [Diethyl-carbamic acid 1,4-bis-(3,4,5-trimethoxy-benzoyl)-piperazin-2-ylmethyl ester], for which, in test [1], the IC50 was 25800 nM. This IC50 is about 21-fold higher than that of the compound before.

For `CCCCCN(CCCCC)C(=O)OCC1CN(C(=O)c2cc(OC)c(OC)c(OC)c2)CCN1C(=O)c1cc(OC)c(OC)c(OC)c1` (stereo unspecified) [Dipentyl-carbamic acid 1,4-bis-(3,4,5-trimethoxy-benzoyl)-piperazin-2-ylmethyl ester], in test [1], half-maximal inhibition (IC50) was put at 11400 nM.

Compound `CCCCCC(=O)OCC1CN(C(=O)c2cc(OC)c(OC)c(OC)c2)CCN1C(=O)c1cc(OC)c(OC)c(OC)c1` (stereo unspecified) [Hexanoic acid 1,4-bis-(3,4,5-trimethoxy-benzoyl)-piperazin-2-ylmethyl ester] showed an IC50 in test [1] of 290 nM.

For `CCCCCCCCCCCCCCCCCC(=O)OCC1CN(C(=O)c2cc(OC)c(OC)c(OC)c2)CCN1C(=O)c1cc(OC)c(OC)c(OC)c1` (stereo unspecified) [Octadecanoic acid 1,4-bis-(3,4,5-trimethoxy-benzoyl)-piperazin-2-ylmethyl ester], the IC50 in test [1] was 45000 nM.

The compound `CCCCCCCC(=O)OCC1CN(C(=O)c2cc(OC)c(OC)c(OC)c2)CCN1C(=O)c1cc(OC)c(OC)c(OC)c1` (stereo unspecified) [Octanoic acid 1,4-bis-(3,4,5-trimethoxy-benzoyl)-piperazin-2-ylmethyl ester] yielded an IC50 in test [1] of 310 nM.

Take `CCCCCCCCNC(=O)OCC1CN(C(=O)c2cc(OC)c(OC)c(OC)c2)CCN1C(=O)c1cc(OC)c(OC)c(OC)c1` (stereo unspecified) [Octyl-carbamic acid 1,4-bis-(3,4,5-trimethoxy-benzoyl)-piperazin-2-ylmethyl ester]: the IC50 in test [1] is 370 nM.

In test [1], `COc1cc(C(=O)N2CCN(C(=O)c3cc(OC)c(OC)c(OC)c3)C(COC(=O)NC(C)(C)C)C2)cc(OC)c1OC` (stereo unspecified) [tert-Butyl-carbamic acid 1,4-bis-(3,4,5-trimethoxy-benzoyl)-piperazin-2-ylmethyl ester] yielded an IC50 of 130 nM.
